Reference: US20240409585A1, “MACROCYCLIC IMMUNOMODULATORS” (priority 2021, published 2024)
Bridge positions count the residues as written; N and C are the ends. Square brackets hold non-standard residues; d marks the D form. Peptide text beside a SMILES is read from it. * marks the point of attachment. ξ: configuration not given here. Phe(4-COOH) = N[C@@H](Cc1ccc(C(=O)O)cc1)C(=O)O; Bip = N[C@@H](Cc1ccc(-c2ccccc2)cc1)C(=O)O; Phe(3-CN) = N#Cc1cccc(C[C@H](N)C(=O)O)c1; Phe(3-Me) = Cc1cccc(C[C@H](N)C(=O)O)c1; Bta = N[C@@H](Cc1csc2ccccc12)C(=O)O; hTyr = N[C@@H](CCc1ccc(O)cc1)C(=O)O; Val(3-OH) = CC(C)(O)[C@H](N)C(=O)O; 3Pal = N[C@@H](Cc1cccnc1)C(=O)O; 4Pal = N[C@@H](Cc1ccncc1)C(=O)O; Cha = N[C@@H](CC1CCCCC1)C(=O)O; Cit = NC(=O)NCCC[C@H](N)C(=O)O; Ile(3ξ) = CCC(C)[C@H](N)C(=O)O; Thr(3ξ) = CC(O)[C@H](N)C(=O)O; hLeu = CC(C)CC[C@H](N)C(=O)O; Carboxymethyl = O=C(O)C*; NMeA = CN[C@@H](C)C(=O)O; Orn = NCCC[C@H](N)C(=O)O; Dab = NCC[C@H](N)C(=O)O; Dap = NC[C@H](N)C(=O)O; Piv = CC(C)(C)C(=O)*

biological target: T1, PE-labeled human PD-L1-Ig binding to Jurkat cell line over-expressing human PD-1 (Jurkat-PD-1) (Homo sapiens, UniProt Q15116); test: Jurkat-PD-1 Cell Binding High-Content Screening Assay (CBA): Method 1; conditions: Jurkat-hPD-1 cells, PE-labeled PD-L1-Ig 20 nM final; read-out: Jurkat HPDL1 PD1 IC50 (uM) (Method 1)
T1 construct: expressed in transfected cells; host or cells: Jurkat
T1 sequence (Q15116 25-288): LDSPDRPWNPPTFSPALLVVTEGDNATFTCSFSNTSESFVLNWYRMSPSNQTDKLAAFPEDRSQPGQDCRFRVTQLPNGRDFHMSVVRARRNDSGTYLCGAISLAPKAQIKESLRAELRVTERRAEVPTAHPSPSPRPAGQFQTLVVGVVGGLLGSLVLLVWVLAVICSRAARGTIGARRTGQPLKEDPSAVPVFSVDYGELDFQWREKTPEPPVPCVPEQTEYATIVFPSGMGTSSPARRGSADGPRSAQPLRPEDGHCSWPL

Structure (SMILES)	IC50
CC[C@H](C)[C@@H]1NC(=O)[C@H](Cc2ccc(-c3ccccc3)cc2)NC(=O)[C@H](C(C)(C)O)NC(=O)[C@H](Cc2cccc(C)c2)NC(=O)[C@H](CC(=O)O)NC(=O)[C@H](Cc2ccc(O)cc2)NC(=O)[C@H](CC(N)=O)NC(=O)CSC[C@@H](C(=O)N[C@@H](CCN)C(N)=O)NC(=O)[C@H]([C@@H](C)O)NC(=O)[C@H](C(C)C)NC(=O)[C@H](CC(C)C)NC(=O)[C@H](CCN)NC(=O)[C@@H](CC(C)C)NC(=O)[C@H](C)N(C)C1=O [Compound 1686] ({CH2CO}-NYD[Phe(3-Me)][Val(3-OH)][Bip]I[NMeA][dL][Dab]LVTC[Dab]-NH2; thioether N-14)	0.16 µM
CC(C)C[C@@H]1NC(=O)[C@H](Cc2c[nH]c3ccccc23)NC(=O)[C@H](CC(=O)O)NC(=O)[C@H](Cc2ccc(OCC(=O)O)cc2)NC(=O)[C@H](Cc2ccccc2)NC(=O)CSC[C@@H](C(=O)N[C@@H](C)C(N)=O)NC(=O)[C@H](CO)NC(=O)[C@H](C(C)C)NC(=O)[C@H](CC(C)C)NC(=O)[C@H](CC(N)=O)NC(=O)[C@@H](CC(C)C)NC(=O)[C@H](C)N(C)C(=O)[C@H](CC(=O)O)NC(=O)[C@H](Cc2ccc(-c3ccccc3)cc2)NC1=O [Compound 2029] ({CH2CO}-FY(Carboxymethyl)DWL[Bip]D[NMeA][dL]NLVSCA-NH2; thioether N-14)	0.04 µM
Cc1cccc(C[C@@H]2NC(=O)[C@H](CC(=O)O)NC(=O)[C@H](Cc3ccncc3)NC(=O)[C@H](CN)NC(=O)CSC[C@@H](C(=O)N[C@@H](C)C(N)=O)NC(=O)[C@H]([C@@H](C)O)NC(=O)[C@H](C(C)C)NC(=O)[C@H](CC(C)C)NC(=O)[C@H](CCN)NC(=O)[C@@H](CC(C)C)NC(=O)[C@H](C)N(C)C(=O)[C@H](CCCNC(N)=O)NC(=O)[C@H](Cc3ccc(-c4ccccc4)cc3)NC(=O)[C@H](C(C)C)NC2=O)c1 [Compound 1546] ({CH2CO}-[Dap][4Pal]D[Phe(3-Me)]V[Bip][Cit][NMeA][dL][Dab]LVTCA-NH2; thioether N-14)	0.02 µM
CC(=O)NCC[C@H](NC(=O)[C@@H]1CSCC(=O)N[C@@H](C(C)O)C(=O)N[C@@H](Cc2ccc(OCC(=O)O)cc2)C(=O)N[C@@H](CC(=O)O)C(=O)N[C@@H](Cc2cccc(C)c2)C(=O)N[C@@H](Cc2ccc(C(=O)O)cc2)C(=O)N[C@@H](Cc2ccc(-c3ccccc3)cc2)C(=O)N[C@@H](Cc2ccc(OCC(=O)O)cc2)C(=O)N(C)[C@@H](C)C(=O)N[C@H](CC(C)C)C(=O)N[C@@H](CCN)C(=O)N[C@@H](CC2CCCCC2)C(=O)N[C@@H](C(C)(C)O)C(=O)N[C@@H](Cc2cnc[nH]2)C(=O)N1)C(N)=O (stereo partly drawn) [Compound 2161] ({CH2CO}-[Thr(3ξ)]Y(Carboxymethyl)D[Phe(3-Me)][Phe(4-COOH)][Bip]Y(Carboxymethyl)[NMeA][dL][Dab][Cha][Val(3-OH)]HC[Dab](Ac)-NH2; thioether N-14)	0.04 µM
Cc1cccc(C[C@@H]2NC(=O)[C@H](CC(=O)O)NC(=O)[C@H](Cc3ccc(C(=O)O)cc3)NC(=O)[C@H](Cc3ccncc3)NC(=O)CSC[C@@H](C(=O)N[C@@H](CO)C(N)=O)NC(=O)[C@H](CCC(=O)O)NC(=O)[C@H](C(C)(C)O)NC(=O)[C@H](CC3CCCCC3)NC(=O)[C@H](CCN)NC(=O)[C@@H](CC(C)C)NC(=O)[C@H](C)N(C)C(=O)[C@H](Cc3ccc(OCC(=O)O)cc3)NC(=O)[C@H](Cc3ccc(-c4ccccc4)cc3)NC(=O)[C@H](Cc3ccc(C(=O)O)cc3)NC2=O)c1 [Compound 2195] ({CH2CO}-[4Pal][Phe(4-COOH)]D[Phe(3-Me)][Phe(4-COOH)][Bip]Y(Carboxymethyl)[NMeA][dL][Dab][Cha][Val(3-OH)]ECS-NH2; thioether N-14)	0.08 µM
CC[C@H](C)[C@@H]1NC(=O)[C@H](Cc2ccc(-c3ccccc3)cc2)NC(=O)[C@H](C(C)C)NC(=O)[C@H](Cc2c[nH]c3ccccc23)NC(=O)[C@H](CC(=O)O)NC(=O)[C@H](Cc2cccc(C#N)c2)NC(=O)[C@H](CC(N)=O)NC(=O)CSC[C@@H](C(=O)N[C@@H](C)C(N)=O)NC(=O)[C@H]([C@@H](C)O)NC(=O)[C@H](C(C)C)NC(=O)[C@H](CC(C)C)NC(=O)[C@H](CCN)NC(=O)[C@@H](CC(C)C)NC(=O)[C@H](C)N(C)C1=O [Compound 1397] ({CH2CO}-N[Phe(3-CN)]DWV[Bip]I[NMeA][dL][Dab]LVTCA-NH2; thioether N-14)	0.02 µM
CC(C)C[C@@H]1NC(=O)[C@H](Cc2c[nH]c3ccccc23)NC(=O)[C@H](CC(=O)O)NC(=O)[C@H](Cc2ccc(O)cc2)NC(=O)[C@H](Cc2ccccc2)NC(=O)CSC[C@@H](C(=O)NCC(N)=O)NC(=O)[C@H]([C@@H](C)O)NC(=O)[C@H](C(C)C)NC(=O)[C@H](CC(C)C)NC(=O)[C@H](CC(N)=O)NC(=O)[C@@H](C)NC(=O)[C@H](C)N(C)C(=O)[C@H](C(C)C)NC(=O)[C@H](Cc2ccc(-c3ccccc3)cc2)NC1=O [Compound 1476] ({CH2CO}-FYDWL[Bip]V[NMeA][dA]NLVTCG-NH2; thioether N-14)	0.06 µM

More lines, now with the values ahead:

IC50	Structure (SMILES)
0.06 µM	CC(C)CC[C@@H]1NC(=O)[C@H](CCCNC(=N)N)NC(=O)[C@@H](CC(C)C)NC(=O)[C@H](C)N(C)C(=O)[C@H](CCCNC(=N)N)NC(=O)[C@H](Cc2ccc(-c3ccccc3)cc2)NC(=O)[C@H](C(C)C)NC(=O)[C@H](Cc2c[nH]c3ccccc23)NC(=O)[C@H](CC(=O)O)NC(=O)[C@H](Cc2ccc(O)cc2)NC(=O)[C@H](Cc2ccccc2)NC(=O)CSC[C@@H](C(=O)N[C@@H](C)C(N)=O)NC(=O)[C@H]([C@@H](C)O)NC(=O)[C@H](C(C)C)NC1=O [Compound 1116] ({CH2CO}-FYDWV[Bip]R[NMeA][dL]R[hLeu]VTCA-NH2; thioether N-14)
0.04 µM	Cc1cccc(C[C@@H]2NC(=O)[C@H](CC(=O)O)NC(=O)[C@H](Cc3ccc(OCC(=O)O)cc3)NC(=O)[C@H](Cc3ccncc3)NC(=O)CSC[C@@H](C(=O)N[C@@H](CCNC(=O)C(C)(C)C)C(N)=O)NC(=O)[C@H](Cc3cnc[nH]3)NC(=O)[C@H](C(C)(C)O)NC(=O)[C@H](CC3CCCCC3)NC(=O)[C@H](CCN)NC(=O)[C@@H](CC(C)C)NC(=O)[C@H](C)N(C)C(=O)[C@H](Cc3ccc(OCC(=O)O)cc3)NC(=O)[C@H](Cc3ccc(-c4ccccc4)cc3)NC(=O)[C@H](Cc3ccc(C(=O)O)cc3)NC2=O)c1 [Compound 2165] ({CH2CO}-[4Pal]Y(Carboxymethyl)D[Phe(3-Me)][Phe(4-COOH)][Bip]Y(Carboxymethyl)[NMeA][dL][Dab][Cha][Val(3-OH)]HC[Dab](Piv)-NH2; thioether N-14)
0.13 µM	CC(C)C[C@@H]1NC(=O)[C@H](CCCNC(=N)N)NC(=O)[C@H](Cc2csc3ccccc23)NC(=O)[C@H](C)N(C)C(=O)[C@H](CCCNC(=N)N)NC(=O)[C@H](Cc2ccc(-c3ccccc3)cc2)NC(=O)[C@H](C(C)C)NC(=O)[C@H](Cc2c[nH]c3ccccc23)NC(=O)[C@H](CC(=O)O)NC(=O)[C@H](Cc2ccc(O)cc2)NC(=O)[C@H](CC(N)=O)NC(=O)CSC[C@@H](C(=O)NCC(N)=O)NC(=O)[C@H](CO)NC(=O)[C@H](C(C)C)NC1=O [Compound 1026] ({CH2CO}-NYDWV[Bip]R[NMeA][Bta]RLVSCG-NH2; thioether N-14)
0.07 µM	CC(C)C[C@@H]1NC(=O)[C@H](CCCNC(=N)N)NC(=O)[C@@H](CC(C)C)NC(=O)[C@H](C)N(C)C(=O)[C@H](CCCNC(=N)N)NC(=O)[C@H](Cc2ccc(-c3ccccc3)cc2)NC(=O)[C@H](C(C)C)NC(=O)[C@H](Cc2c[nH]c3ccccc23)NC(=O)[C@H](CC(=O)O)NC(=O)[C@H](CCc2ccc(O)cc2)NC(=O)[C@H](Cc2ccccc2)NC(=O)CSC[C@@H](C(=O)N[C@@H](C)C(N)=O)NC(=O)[C@H]([C@@H](C)O)NC(=O)[C@H](C(C)C)NC1=O [Compound 1106] ({CH2CO}-F[hTyr]DWV[Bip]R[NMeA][dL]RLVTCA-NH2; thioether N-14)
0.04 µM	CC(C)C[C@@H]1NC(=O)[C@H](Cc2c[nH]c3ccccc23)NC(=O)[C@H](CC(=O)O)NC(=O)[C@H](Cc2ccc(O)cc2)NC(=O)[C@H](Cc2ccccc2)NC(=O)CSC[C@@H](C(=O)N[C@@H](C)C(N)=O)NC(=O)[C@H]([C@@H](C)O)NC(=O)[C@H](CCCCN)NC(=O)[C@H](CC(C)C)NC(=O)[C@H](CC(N)=O)NC(=O)[C@@H](C)NC(=O)[C@H](C)N(C)C(=O)[C@H](C(C)C)NC(=O)[C@H](Cc2ccc(-c3ccccc3)cc2)NC1=O [Compound 1766] ({CH2CO}-FYDWL[Bip]V[NMeA][dA]NLKTCA-NH2; thioether N-14)
0.01 µM	CCC(C)[C@@H]1NC(=O)[C@H](Cc2ccc(-c3ccccc3)cc2)NC(=O)[C@H](C(C)C)NC(=O)[C@H](Cc2cccc(C)c2)NC(=O)[C@H](CC(=O)O)NC(=O)[C@H](Cc2ccc(OCC(=O)O)cc2)NC(=O)[C@H](Cc2ccncc2)NC(=O)CSC[C@@H](C(=O)N[C@@H](CCCN)C(N)=O)NC(=O)[C@H](C(C)O)NC(=O)[C@H](C(C)(C)O)NC(=O)[C@H](CC2CCCCC2)NC(=O)[C@H](CCN)NC(=O)[C@@H](CC(C)C)NC(=O)[C@H](C)N(C)C1=O (stereo partly drawn) [Compound 2145] ({CH2CO}-[4Pal]Y(Carboxymethyl)D[Phe(3-Me)]V[Bip][Ile(3ξ)][NMeA][dL][Dab][Cha][Val(3-OH)][Thr(3ξ)]C[Orn]-NH2; thioether N-14)
0.03 µM	CC(C)C[C@@H]1NC(=O)[C@H](CCCNC(=N)N)NC(=O)[C@@H](CC(C)C)NC(=O)[C@H](C)N(C)C(=O)[C@H](C(C)C)NC(=O)[C@H](Cc2ccc(-c3ccccc3)cc2)NC(=O)[C@H](C(C)C)NC(=O)[C@H](Cc2c[nH]c3ccccc23)NC(=O)[C@H](CC(=O)O)NC(=O)[C@H](Cc2ccc(O)cc2)NC(=O)[C@H](CC(N)=O)NC(=O)CSC[C@@H](C(=O)N[C@@H](C)C(N)=O)NC(=O)[C@H]([C@@H](C)O)NC(=O)[C@H](C(C)C)NC1=O [Compound 1216] ({CH2CO}-NYDWV[Bip]V[NMeA][dL]RLVTCA-NH2; thioether N-14)
0.01 µM	Cc1cccc(C[C@@H]2NC(=O)[C@H](Cc3cccnc3)NC(=O)CSC[C@@H](C(=O)NCC(N)=O)NC(=O)[C@H](CO)NC(=O)[C@H](C(C)C)NC(=O)[C@H](CC(C)C)NC(=O)[C@H](CC(N)=O)NC(=O)[C@@H](CC(C)C)NC(=O)[C@H](C)N(C)C(=O)[C@H](C(C)C)NC(=O)[C@H](Cc3ccc(-c4ccccc4)cc3)NC(=O)[C@H](CC(C)C)NC(=O)[C@H](Cc3c[nH]c4ccccc34)NC(=O)[C@H](CC(=O)O)NC2=O)c1 [Compound 1520] ({CH2CO}-[3Pal][Phe(3-Me)]DWL[Bip]V[NMeA][dL]NLVSCG-NH2; thioether N-14)
